# Measurements as given in patent publication US20240158446A1, “CYCLIC COMPOUND HAVING SELECTIVE INHIBITORY ACTION ON KRAS OVER HRAS AND NRAS” (CHUGAI SEIYAKU KABUSHIKI KAISHA, priority 2021, published 2024).
# pIC50, pKd: −log10 of the molar value. Where two headings read alike, the source gives them in different places.
# Legend:
# [1] = target: GDP-bound HRAS wild-type protein (Homo sapiens, UniProt P01112); experiment: Binding to HRAS by surface plasmon resonance (SPR), Single Cycle Kinetics; details: for HRAS/KRAS (ratio of KD value for HRAS to KD value for KRAS) / ratio of the KD value with respect to GDP-bound HRAS wild-type protein to the KD value with respect to KRAS: SPR; for HRAS/KRAS (ratio of KD value for HRAS to KD value for KRAS): GDP-bound HRAS wild-type protein vs GDP-bound KRAS wild-type protein; for HRAS/KRAS (ratio of KD value with respect to GDP-bound HRAS wild-type protein to KD value with respect to KRAS): SPR KD ratio HRAS/KRAS, class symbols
# Chain of GDP-bound HRAS wild-type protein (P01112 whole entry): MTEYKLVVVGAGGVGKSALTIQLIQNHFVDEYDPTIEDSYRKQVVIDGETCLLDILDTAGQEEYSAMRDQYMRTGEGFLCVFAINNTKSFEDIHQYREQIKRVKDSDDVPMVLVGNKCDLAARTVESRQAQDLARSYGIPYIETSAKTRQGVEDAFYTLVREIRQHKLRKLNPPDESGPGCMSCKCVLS
# [2] = system: human lung cancer strain NCI-H441;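 also: cell proliferation inhibition after four days measured by CellTiter-Glo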
# [3] = target: GDP-bound KRAS wild-type protein (Homo sapiens, UniProt P01116); experiment: Binding to KRAS by surface plasmon resonance (SPR), Single Cycle Kinetics
# Chain of GDP-bound KRAS wild-type protein (P01116 whole entry): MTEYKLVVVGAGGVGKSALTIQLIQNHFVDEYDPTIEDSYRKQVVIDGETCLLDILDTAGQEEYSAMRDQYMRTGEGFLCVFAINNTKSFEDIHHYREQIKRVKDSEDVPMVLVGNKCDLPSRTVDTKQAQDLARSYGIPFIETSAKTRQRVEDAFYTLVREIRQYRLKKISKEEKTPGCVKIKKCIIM
# [4] = target: GDP-bound NRAS wild-type protein (Homo sapiens, UniProt P01111); experiment: Binding to NRAS by surface plasmon resonance (SPR), Single Cycle Kinetics; details: for NRAS/KRAS (ratio of KD value for NRAS to KD value for KRAS) / ratio of the KD value with respect to GDP-bound NRAS wild-type protein to the KD value with respect to KRAS: SPR; for NRAS/KRAS (ratio of KD value for NRAS to KD value for KRAS): GDP-bound NRAS wild-type protein vs GDP-bound KRAS wild-type protein; for NRAS/KRAS (ratio of KD value with respect to GDP-bound NRAS wild-type protein to KD value with respect to KRAS): SPR KD ratio NRAS/KRAS, class symbols
# Chain of GDP-bound NRAS wild-type protein (P01111 whole entry): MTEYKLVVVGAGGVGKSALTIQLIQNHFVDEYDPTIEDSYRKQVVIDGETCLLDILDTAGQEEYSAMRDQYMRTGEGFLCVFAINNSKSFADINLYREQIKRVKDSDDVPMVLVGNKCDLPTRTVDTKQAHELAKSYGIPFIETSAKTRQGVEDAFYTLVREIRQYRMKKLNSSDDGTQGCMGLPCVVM
# [5] = SPR, Single Cycle Kinetics, GDP-bound KRAS wild-type protein, read-out: KRAS KD
# [6] = SPR Single Cycle Kinetics, GDP-bound KRAS wild-type protein, 1:1 binding model, read-out: KRAS KD
# [7] = SPR, Single Cycle Kinetics, 1:1 binding model, GDP-bound KRAS wild-type protein, read-out: KRAS KD
# [8] = read-out: NCI-H441 cell proliferation inhibitory activity, 50% proliferation inhibitory concentration (IC50 value), NCI-H441, four days, CellTiter-Glo
pIC50 [2],"pKd [3, 5]",Compound,HRAS/KRAS (ratio of KD value for HRAS to KD value for KRAS) [1],NRAS/KRAS (ratio of KD value for NRAS to KD value for KRAS) [4],further results
8.20,10.14,CCOC[C@H]1C(=O)N[C@@H]([C@@H](C)CC)C(=O)N(C)CC(=O)N(C)[C@H]2C/C=C\CCN(C2=O)[C@@H](Cc2ccc(C)cc2)C(=O)N(C)CC(=O)N[C@@H](CCc2ccc(C(F)(F)F)c(Cl)c2)C(=O)N2C[C@H](OCC)C[C@H]2C(=O)NC2(CC(C)(C)C2)C(=O)N(C)[C@@H](C2CCCC2)C(=O)N(C)[C@H](C(=O)N(C)C)CC(=O)N1C [PP2395],B (a compound having 3 or more and less than 10 is denoted as B),A (a compound having 10 or more and less than 20 is denoted as A),
7.86,,CCC[C@H]1C(=O)N[C@@H]([C@@H](C)CC)C(=O)N(C2CC2)CC(=O)N(C)[C@H]2C/C=C\CCN(C2=O)[C@@H](Cc2ccc(C)cc2)C(=O)N(C)CC(=O)N[C@@H](CCc2ccc(C(F)(F)F)c(OC)c2)C(=O)N2C[C@H](OCC)C[C@H]2C(=O)NC2(CC(C)(C)C2)C(=O)N(C)[C@@H](CC(C)(C)C)C(=O)N(C)[C@H](C(=O)N(C)C)CC(=O)N1C [PP2722],,,"HRAS/KRAS (ratio of KD value with respect to GDP-bound HRAS wild-type protein to KD value with respect to KRAS) [1]: B (a compound having 3 or more and less than 10 is denoted as B); pKd [3, 6]: 9.40; NRAS/KRAS (ratio of KD value with respect to GDP-bound NRAS wild-type protein to KD value with respect to KRAS) [4]: B (a compound having 3 or more and less than 10 is denoted as B)"
7.96,,"CCC[C@H]1C(=O)N[C@@H]([C@@H](C)CC)C(=O)N(C)CC(=O)N(C)[C@H]2C/C=C\CCN(C2=O)[C@@H](Cc2ccc(C(F)(F)F)cc2)C(=O)N(C)CC(=O)N[C@@H](CCc2cc(F)c(C(F)(F)F)c(F)c2)C(=O)N2C[C@H](OCC)C[C@H]2C(=O)NC2(CCC2)C(=O)N(C)[C@@H](C2CCCC2)C(=O)N(C)[C@H](C(=O)N2CCCC2)CC(=O)N1C [PP1299, (2S,8S,12R,14S,20S,23S,27S,30S,36S,38Z)-20-cyclopentyl-8-[2-[3,5-difluoro-4-(trifluoromethyl)phenyl]ethyl]-12-ethoxy-4,19,22,26,32,35-hexamethyl-30-[(1S)-1-methylpropyl]-27-propyl-23-(pyrrolidine-1-carbonyl)-2-[[4-(trifluoromethyl)phenyl]methyl]spiro[1,4,7,10,16,19,22,26,29,32,35-undecazatricyclo[34.5.1.0^10,14]dotetracont-38-ene-17,1′-cyclobutane]-3,6,9,15,18,21,25,28,31,34,42-undecone]",,,"HRAS/KRAS (ratio of KD value for HRAS to KD value for KRAS) ([1]; KD ratio class): A (a compound having 10 or more and less than 20 is denoted as A); pKd [3, 7]: 9.85; NRAS/KRAS (ratio of KD value for NRAS to KD value for KRAS) ([4]; KD ratio class): A (a compound having 10 or more and less than 20 is denoted as A)"
7.49,10.60,"CC[C@H](C)[C@@H]1NC(=O)[C@H](CC)N(C)C(=O)C[C@@H](C(=O)N(C)C)N(C)C(=O)[C@H](C2CCCC2)N(C)C(=O)C2(CCC2)NC(=O)[C@@H]2C[C@@H](F)CN2C(=O)[C@H](CCc2cc(F)c(C(F)(F)F)c(F)c2)NC(=O)CN(C)C(=O)[C@H](Cc2ccc(C(F)(F)F)cc2)N2CC/C=C\C[C@@H](C2=O)N(C)C(=O)CN(C)C1=O [PP1131, (2S,8S,12R,14S,20S,23S,27S,30S,36S,38Z)-20-cyclopentyl-8-[2-[3,5-difluoro-4-(trifluoromethyl)phenyl]ethyl]-27-ethyl-12-fluoro-N,N,4,19,22,26,32,35-octamethyl-30-[(1S)-1-methylpropyl]-3,6,9,15,18,21,25,28,31,34,42-undecaoxo-2-[[4-(trifluoromethyl)phenyl]methyl]spiro[1,4,7,10,16,19,22,26,29,32,35-undecazatricyclo[34.5.1.0^10,14]dotetracont-38-ene-17,1′-cyclobutane]-23-carboxamide]",B (a compound having 3 or more and less than 10 is denoted as B),A (a compound having 10 or more and less than 20 is denoted as A),
,10.60,CC[C@H](C)[C@@H]1NC(=O)[C@@H]2CCCCCc3ccc(cc3)C[C@@H](C(=O)N(C)CC(=O)N[C@@H](CCc3ccc(C(F)(F)F)c(OC)c3)C(=O)N3CC4(CC4)C[C@H]3C(=O)NC3(CC(C)(C)C3)C(=O)N(C)[C@@H](C3CCCC3)C(=O)N(C)[C@H](C(=O)N(C)C)CC(=O)N2C)N2CC/C=C\C[C@@H](C2=O)N(C)C(=O)CN(C)C1=O [PP3074],A (a compound having 10 or more and less than 20 is denoted as A),A (a compound having 10 or more and less than 20 is denoted as A),"ratio of the KD value with respect to GDP-bound HRAS wild-type protein to the KD value with respect to KRAS [1]: A (a compound having 10 or more and less than 20 is denoted as A); pIC50 [2, 8]: 8.62; ratio of the KD value with respect to GDP-bound NRAS wild-type protein to the KD value with respect to KRAS [4]: A (a compound having 10 or more and less than 20 is denoted as A)"
7.78,,CC[C@H](C)[C@@H]1NC(=O)[C@H](CC2CC2)N(C)C(=O)C[C@@H](C(=O)N2CCOCC2)N(C)C(=O)[C@H](C2CCCC2)N(C)C(=O)C2(CCC2)NC(=O)[C@@H]2CCCN2C(=O)[C@H](CCc2ccc(C(F)(F)F)c(Cl)c2)NC(=O)CN(C)C(=O)[C@H](Cc2ccc(C(F)(F)F)cc2)N2C[C@H](C)CC[C@@H](C2=O)N(C)C(=O)CN(C)C1=O [PP1344],,,"HRAS/KRAS (ratio of KD value for HRAS to KD value for KRAS) ([1]; KD ratio class): B (a compound having 3 or more and less than 10 is denoted as B); pKd [3, 7]: 9.85; NRAS/KRAS (ratio of KD value for NRAS to KD value for KRAS) ([4]; KD ratio class): B (a compound having 3 or more and less than 10 is denoted as B)"
7.52,10.21,CCO[C@@H]1C[C@H]2C(=O)NC3(CCC3)C(=O)N(C)[C@@H](C3CCCC3)C(=O)N(C)[C@H](C(=O)N(C)C)CC(=O)N(C)[C@@H](Cc3ccc(C#N)cc3)C(=O)N[C@@H]([C@@H](C)CC)C(=O)N(C)CC(=O)N(C)[C@H]3CCCCCN(C3=O)[C@@H](Cc3ccc(F)cc3)C(=O)N(C)CC(=O)N[C@@H](CCc3cc(F)c(C(F)(F)F)c(F)c3)C(=O)N2C1 [PP1157],B (a compound having 3 or more and less than 10 is denoted as B),B (a compound having 3 or more and less than 10 is denoted as B),
,10.28,"CCC[C@H]1C(=O)N[C@@H]([C@@H](C)CC)C(=O)N(C)CC(=O)N(C)[C@H]2C/C=C\CCN(C2=O)[C@@H](Cc2ccc(C(F)(F)F)cc2)C(=O)N(C)CC(=O)N[C@@H](CCc2cc(F)c(C(F)(F)F)c(F)c2)C(=O)N2C[C@H](OCC)C[C@H]2C(=O)N(C)C2(CCC2)C(=O)N(C)[C@@H](C2CCCC2)C(=O)N(C)[C@H](C(=O)N2CCCC2)CC(=O)N1C [PP3120, (2S,8S,12R,14S,20S,23S,27S,30S,36S,38Z)-20-cyclopentyl-8-[2-[3,5-difluoro-4-(trifluoromethyl)phenyl]ethyl]-12-ethoxy-4,16,19,22,26,32,35-heptamethyl-30-[(1S)-1-methylpropyl]-27-propyl-23-(pyrrolidine-1-carbonyl)-2-[[4-(trifluoromethyl)phenyl]methyl]spiro[1,4,7,10,16,19,22,26,29,32,35-undecazatricyclo[34.5.1.0^10,14]dotetracont-38-ene-17,1′-cyclobutane]-3,6,9,15,18,21,25,28,31,34,42-undecone]",A (a compound having 10 or more and less than 20 is denoted as A),AA (a compound having 20 or more is denoted as AA),"ratio of the KD value with respect to GDP-bound HRAS wild-type protein to the KD value with respect to KRAS [1]: A (a compound having 10 or more and less than 20 is denoted as A); pIC50 [2, 8]: 8.72; pKd ([3]; SPR, Single Cycle Kinetics, 1:1 binding model, read-out: KD value with respect to GDP-bound KRAS wild-type protein): 10.28; ratio of the KD value with respect to GDP-bound NRAS wild-type protein to the KD value with respect to KRAS [4]: AA (a compound having 20 or more is denoted as AA)"
7.80,9.72,CCCOC[C@H]1C(=O)N[C@@H]([C@@H](C)CC)C(=O)N(C)CC(=O)N(C)[C@H]2C/C=C\CCN(C2=O)[C@@H](Cc2ccc(C)cc2)C(=O)N(C)CC(=O)N[C@@H](CCc2ccc(C(F)(F)F)c(Cl)c2)C(=O)N2C[C@H](OCC)C[C@H]2C(=O)NC2(CC(C)(C)C2)C(=O)N(C)[C@@H](C2CCCC2)C(=O)N(C)[C@H](C(=O)N(C)CC)CC(=O)N1C [PP2469],B (a compound having 3 or more and less than 10 is denoted as B),A (a compound having 10 or more and less than 20 is denoted as A),

Compound,pIC50 [2],"pKd [3, 5]",HRAS/KRAS (ratio of KD value for HRAS to KD value for KRAS) [1],NRAS/KRAS (ratio of KD value for NRAS to KD value for KRAS) [4],further results
CC[C@H](C)[C@@H]1NC(=O)[C@H](COC)N(C)C(=O)C[C@@H](C(=O)N2CCCCC2)N(C)C(=O)[C@H](C2CCCC2)N(C)C(=O)C2(CC(C)(C)C2)NC(=O)[C@@H]2C[C@@H](OC(C)C)CN2C(=O)[C@H](CCc2cc(F)c(C(F)(F)F)c(F)c2)NC(=O)CN(C)C(=O)[C@H](Cc2ccc(C)cc2)N2CC/C=C\C[C@@H](C2=O)N(C)C(=O)CN(C)C1=O [PP2669],7.73,,,,"HRAS/KRAS (ratio of KD value with respect to GDP-bound HRAS wild-type protein to KD value with respect to KRAS) [1]: A (a compound having 10 or more and less than 20 is denoted as A); pKd [3, 6]: 9.54; NRAS/KRAS (ratio of KD value with respect to GDP-bound NRAS wild-type protein to KD value with respect to KRAS) [4]: A (a compound having 10 or more and less than 20 is denoted as A)"
